Article PMC8736263 (European journal of pharmacology, 2021)

Tests used:
sigma-1 receptor = sigma-1 receptor (Rattus norvegicus, UniProt Q9R0C9); assay: radioligand competition with [3H]-; format: binding
[1] = molecular target: T1, sigma-2 receptor/transmembrane protein 97 (TMEM97) (Rattus norvegicus, UniProt Q5U3Y7); assay: radioligand competition with [3H]DTG plus […]; format: binding
T1 sequence (Q5U3Y7 1-176): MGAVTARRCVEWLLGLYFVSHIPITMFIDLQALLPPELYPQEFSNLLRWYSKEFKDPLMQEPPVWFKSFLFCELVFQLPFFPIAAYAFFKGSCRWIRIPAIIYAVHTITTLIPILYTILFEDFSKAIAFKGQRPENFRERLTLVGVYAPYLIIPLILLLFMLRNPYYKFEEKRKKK

Chain of sigma-1 receptor (Q9R0C9 whole entry): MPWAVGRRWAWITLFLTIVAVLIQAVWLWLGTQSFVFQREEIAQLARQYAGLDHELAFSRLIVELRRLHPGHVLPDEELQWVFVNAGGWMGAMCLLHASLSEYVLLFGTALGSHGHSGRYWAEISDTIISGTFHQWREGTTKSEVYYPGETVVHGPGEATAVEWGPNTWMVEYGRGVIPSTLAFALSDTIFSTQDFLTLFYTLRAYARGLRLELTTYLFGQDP

**Q.** Which results are given for `O=c1oc2cc(NC(=S)Nc3ccc4c(c3)oc(=O)n4CCCCN3CCN(c4ccc(F)cc4)CC3)ccc2n1CCCCN1CCN(c2ccc(F)cc2)CC1` [MAM03055A, 1,3-bis(3-(4-(4-(4-fluorophenyl)piperazin-1-yl)butyl)-2-oxo-2,3-dihydrobenzo[d]oxazol-6-yl)thiourea]?
**A.** Ki (sigma-1 receptor): 3.37 µM; Ki [1]: 0.0559 µM
